In patent US20040225019A1, “Methods of preventing or treating motion sickness” (priority 2003, published 2004):
“Also recorded” adds a separate entry of the source.

Tests used:
motion sickness = assay: Off-vertical rotation chair motion sickness test; type: in vivo, human; conditions: for Mean Time (chair time): ride 3 h after drug, placebo 7.2; for Mean Time (chair time) / Mean Motion Sickness Severity Score: n = 18; for Mean Motion Sickness Severity Score: end of chair ride, placebo 18.2
Text: Motion sickness was simulated by rotation in a tilted chair, also known as off-vertical rotation (Knox, et al. (1994) Laryngoscope 104(8 Pt 1):935-9; Woodard, et al. (1993) Aviat. Space Environ. Med. 64(5):363-6; Mowrey and Clayson (1982) Lancet 1(8273):655-7; Graybiel and Miller (1970) Aero. Med. 41(4):407-10). Off-vertical rotation produces motion sickness symptoms in more than 90% of subjects tested and has a high test-retest reliability. No provocative head motions are required which minimizes subject fatigue and training. For each run, the chair was tilted to 15 degrees off vertical, and accelerated at 5 degrees/sec^2 to 17.5 revolutions per minute. […] The subject was restrained with a seat belt and shoulder harness. The subject's head was also secured to the headrest with a strap to prevent head movements. Opaque goggles were placed over the subject's eyes.
The degree of motion sickness was assessed in three different ways. For the first method, the subjects were instructed how to use a well-known ratio scaling method (Bock and Oman (1982) Aviat. Space Environ. Med. 53(8):773-7) and were given a familiarization run in the chair to experience the motion sickness symptoms. The subjects were instructed to rate the peak overall discomfort they experienced in the familiarization ride as a “10” and to remember this level. They were instructed to rate all other levels of discomfort relative to this level. For example, discomfort which was half as severe would be rated as a “5”. This method is similar other well-known methods (see, e.g., Stott, et al. (1989) Br. J. Clin. Pharma. 27(2):147-57).
The second method was symptom recording. Prior to the familiarization run the subjects were instructed about the different symptoms that might occur (drowsiness, epigastric awareness, and the like). The subjects were asked about these symptoms each minute during the rotation and logged on a scoring sheet (Miller and Graybiel (1970) Aero. Med. 41(4):407-10), which was a variant of the Pensacola Diagnostic Rating Scale. The symptoms were assigned points and from these points, five levels of severity were determined (frank sickness, severe malaise, moderate malaise A, moderate malaise B, slight malaise).
The third method used to assess motion sickness was to record the total number of minutes the subject rides in the chair before stopping (Woodard, et al. (1993) supra; Mowrey and Clayson (1982) supra).
The studies employed a double-blind, placebo controlled, crossover design. […] The placebo was a single lactose capsule. […] The medications were labeled only with the subject's name, identification number and sequence of administration (i.e., Run 1, Run 2, Run 3). […] Both the research team and subjects were unaware of the order of administration.
Prior to the ride, subjects received a briefing on the symptoms they might experience, how to report those symptoms and instructions on when to stop the test. After the familiarization ride the subjects were instructed to remember their peak overall discomfort as a “10” and to rate all future symptoms relative to that baseline.
The subjects rode in the chair once for each treatment (low dose, high dose, and placebo) with at least one week between rides. A one week interval between rides is sufficient to prevent habituation to the rotating stimulus (Kohl (1987) Aviat. Space Environ. Med. 58(2):125-31; Stott, et al (1989) supra).
Test medications were taken two hours after finishing breakfast. […] On the study day, the subjects came to the lab, performed the cognitive testing battery and were observed taking the test medication. The time of drug ingestion was documented and the subjects returned three hours after taking the medication to complete the cognitive testing battery and ride in the chair. Prior to entering the chair, subjects received a standardized test briefing. Every minute during the testing, subjects were quizzed for motion sickness symptoms and asked to rate their own symptoms on a ratio scale. […]

[1] = Cognitive assessment battery before and after drug and chair ride; type: in vivo, human; conditions: for Mean Reaction Time: n = 15
Text: Test medications were taken two hours after finishing breakfast. […] On the study day, the subjects came to the lab, performed the cognitive testing battery and were observed taking the test medication. The time of drug ingestion was documented and the subjects returned three hours after taking the medication to complete the cognitive testing battery and ride in the chair. Prior to entering the chair, subjects received a standardized test briefing. Every minute during the testing, subjects were quizzed for motion sickness symptoms and asked to rate their own symptoms on a ratio scale. Testing continued until either 20 minutes elapsed, the subject requested testing stop, or severe nausea or vomiting was experienced (i.e., the subject reached a subjective 10 on their scale). Blood pressure, respiratory rate and pulse were measured before and after the chair ride using a Critikon DINAMAP® 1846-SX device.
A standard cognitive assessment battery (Dinges, et al. (1997) Sleep 20(4):267-7; Neri, et al. (1995) Aviat. Space Environ. Med 66(4):313-9; Richardson, et al. (1996) Sleep 19(9):718-26) used in studies of sleep deprivation (Jewett, et al. (1999) Sleep 22(2):171-9) was used which included both objective and subjective measures of performance and wakefulness. The overall battery takes 20 minutes to administer and has been used successfully on the Neurolab space shuttle mission to assess how sleep loss affected crewmembers.
The cognitive tests were performed three times for each chair ride. The first test served as a baseline, the second test was administered at the peak of drug effect and the last test was after the chair ride. In this design, the results of the second test reflect changes due to drug effect, while the results from the third test reflect a combination of drug effect and motion sickness effects.

[2] = Questionnaire about side effects after chair ride

CN(C)CCC(c1ccc(Cl)cc1)c1ccccn1 (racemic) [chlorpheniramine]
Mean Time (chair time) (motion sickness; High Dose 12 mg chlorpheniramine capsule): 11.7 min | Mean Motion Sickness Severity Score (motion sickness; High Dose 12 mg): 12.4 | Motion sickness severity score at end of chair ride (significance) (motion sickness; High dose 12 mg versus placebo (p=0.0004) and low dose (p=0.01)): significantly less | Increase of mean chair time versus placebo (motion sickness; High dose 12 mg, 7.2 to 11.7 minutes): 63% | Effect on chair time versus placebo (significance) (motion sickness; High dose 12 mg, p=0.001): significantly increased chair time | Mean Time (chair time) (motion sickness; Low Dose 4 mg chlorpheniramine capsule): 10.2 min | Mean Motion Sickness Severity Score (motion sickness; Low Dose 4 mg): 16.4 | Subjects who increased chair time to the maximum (20 minutes) (motion sickness; of 18 subjects, rides stopped at 20 minutes): Three | Performance in objective tests of addition, tracking and memory ([1]; 4 mg and 12 mg doses): does not affect performance; also recorded: not significantly affected | Mean Reaction Time ([1]; High Dose 12 mg, PostDrug): 281.5 ms | Mean Reaction Time ([1]; High Dose 12 mg, PostRide): 298.4 ms | Mean Reaction Time ([1]; High Dose 12 mg, PreDrug (baseline before drug)): 265.1 ms | Karolinska sleepiness scores ([1]; High dose 12 mg, after chair rides, p<0.0001): higher sleepiness scores | Reaction time (significance) ([1]; High dose 12 mg, after the chair rides, p=0.0002): significantly increased | Scores on the alert-sleepy mood scale ([1]; High dose 12 mg, p<0.0001): significantly changed toward the sleepy portion of the scale | Scores on the clearheaded-groggy mood scale ([1]; High dose 12 mg, p<0.0001): significantly changed toward the groggy portion of the scale | Mean Reaction Time ([1]; Low Dose 4 mg, PostDrug): 286.1 ms | Mean Reaction Time ([1]; Low Dose 4 mg, PostRide): 295.2 ms | Mean Reaction Time ([1]; Low Dose 4 mg, PreDrug (baseline before drug)): 271.2 ms | Most commonly reported toxicities ([2]; after chair rides, 18 subjects): drowsiness and dry mouth | Tendency to report a side effect with drug versus placebo ([2]; chi-square analysis): did not reach statistical significance
